The target in one assay is T1, CDK8 (Homo sapiens, UniProt P49336).
T1 construct: purchased Eurofins DiscoverX KINOMEscan
As to the kind of experiment: KINOMEscan 1 μM, CDK8. The assay is classed as binding. Conditions: 1000 nM; Entrez CDK8; read-out: Percent Control. The text has this:
(§1) Supplement cells-12-00287-s001.zip/File S2. KinomeScan data for the CAMKK2 probe and negative control.xlsx, sheet "SGC-CAMKK2-1" | column: Percent Control

A further assay concerns the target T2, RIOK3 (Homo sapiens, UniProt O14730).
T2 construct: purchased Eurofins DiscoverX KINOMEscan
Put plainly: KINOMEscan 1 μM, RIOK3. The assay is classed as binding. As to conditions: 1000 nM; Entrez RIOK3; read-out: Percent Control.
Excerpt: as §1

A further assay concerns the target T3, PHKG1 (Homo sapiens, UniProt Q16816).
T3 construct: purchased Eurofins DiscoverX KINOMEscan
As to the kind of experiment: KINOMEscan 1 μM, PHKG1. As to conditions: 1000 nM; Entrez PHKG1; read-out: Percent Control. The assay is classed as binding.
Excerpt: as §1

The next assay addresses T4, CSNK1G2 (Homo sapiens, UniProt P78368).
T4 construct: purchased Eurofins DiscoverX KINOMEscan
Put plainly: KINOMEscan 1 μM, CSNK1G2. The class given is binding. As to conditions: 1000 nM; Entrez CSNK1G2; read-out: Percent Control.
Excerpt: as §1

Another assay has as its system FLT3(ITD,D835V). Put plainly: KINOMEscan 1 μM, FLT3(ITD,D835V). The class given is binding, human. As to conditions: 1000 nM; Entrez FLT3.
Excerpt: as §1

Assay [1] has as its target T5, STK36 (Homo sapiens, UniProt Q9NRP7).
T5 construct: purchased Eurofins DiscoverX KINOMEscan
As to the kind of experiment: KINOMEscan 1 μM, STK36. The assay is classed as binding. As to conditions: 1000 nM; Entrez STK36; read-out: Percent Control.
Excerpt: as §1

A further assay has as its target T6, ABL2 (Homo sapiens, UniProt P42684).
T6 construct: purchased Eurofins DiscoverX KINOMEscan
Put plainly: KINOMEscan 1 μM, ABL2. The assay is classed as binding. Conditions: 1000 nM; Entrez ABL2; read-out: Percent Control.
Excerpt: as §1

In a further assay the target is T7, CHEK2 (Homo sapiens, UniProt O96017).
T7 construct: purchased Eurofins DiscoverX KINOMEscan
Put plainly: KINOMEscan 1 μM, CHEK2. The assay is classed as binding. As to conditions: 1000 nM; Entrez CHEK2; read-out: Percent Control.
Excerpt: as §1

A further assay has as its target T8, DMPK (Homo sapiens, UniProt Q09013).
T8 construct: purchased Eurofins DiscoverX KINOMEscan
As to the kind of experiment: KINOMEscan 1 μM, DMPK. The assay is classed as binding. As to conditions: 1000 nM; Entrez DMPK; read-out: Percent Control.
Excerpt: as §1

The target in a further assay is T9, AKT2 (Homo sapiens, UniProt P31751).
T9 construct: purchased Eurofins DiscoverX KINOMEscan
As to the kind of experiment: KINOMEscan 1 μM, AKT2. The class given is binding. Conditions: 1000 nM; Entrez AKT2; read-out: Percent Control.
Excerpt: as §1

The target in the next assay is T10, ANKK1 (Homo sapiens, UniProt Q8NFD2).
T10 construct: purchased Eurofins DiscoverX KINOMEscan
As to the kind of experiment: KINOMEscan 1 μM, ANKK1. The assay is classed as binding. As to conditions: 1000 nM; Entrez ANKK1; read-out: Percent Control.
Excerpt: as §1

The target in the next assay is T11, AURKB (Homo sapiens, UniProt Q96GD4).
T11 construct: purchased Eurofins DiscoverX KINOMEscan
As to the kind of experiment: KINOMEscan 1 μM, AURKB. Conditions: 1000 nM; Entrez AURKB; read-out: Percent Control. The class given is binding.
Excerpt: as §1

The next assay concerns the target T12, CDK5 (Homo sapiens, UniProt Q00535).
T12 construct: purchased Eurofins DiscoverX KINOMEscan
Put plainly: KINOMEscan 1 μM, CDK5. Conditions: 1000 nM; Entrez CDK5; read-out: Percent Control. The class given is binding.
Excerpt: as §1

Another assay deals with T13, EGFR(T790M) (Homo sapiens, UniProt P00533, T790M).
T13 construct: purchased Eurofins DiscoverX KINOMEscan
Put plainly: KINOMEscan 1 μM, EGFR(T790M). Conditions: 1000 nM; Entrez EGFR; read-out: Percent Control. The assay is classed as binding.
Excerpt: as §1

The next assay addresses T14, FGFR1 (Homo sapiens, UniProt P11362).
T14 construct: purchased Eurofins DiscoverX KINOMEscan
Put plainly: KINOMEscan 1 μM, FGFR1. The assay is classed as binding. As to conditions: 1000 nM; Entrez FGFR1; read-out: Percent Control.
Excerpt: as §1

In the next assay the target is T15, HIPK3 (Homo sapiens, UniProt Q9H422).
T15 construct: purchased Eurofins DiscoverX KINOMEscan
Put plainly: KINOMEscan 1 μM, HIPK3. The assay is classed as binding. Conditions: 1000 nM; Entrez HIPK3; read-out: Percent Control.
Excerpt: as §1

The next assay addresses T16, NEK4 (Homo sapiens, UniProt P51957).
T16 construct: purchased Eurofins DiscoverX KINOMEscan
Put plainly: KINOMEscan 1 μM, NEK4. The class given is binding. As to conditions: 1000 nM; Entrez NEK4; read-out: Percent Control.
Excerpt: as §1

The target in a further assay is T17, PIK3CA(H1047Y) (Homo sapiens, UniProt P42336, H1047Y).
T17 construct: purchased Eurofins DiscoverX KINOMEscan
Put plainly: DiscoverX KINOMEscan binding assay at 1 μM, PIK3CA(H1047Y). Conditions: Compound Concentration 1000 nM, read-out: Percent Control.
Excerpt: as §1

Assay [2] concerns the target T18, RSK3(Kin.Dom.2-C-terminal) (Homo sapiens, UniProt Q15349).
T18 construct: RSK3(Kin.Dom.2-C-terminal); purchased Eurofins DiscoverX KINOMEscan
Put plainly: DiscoverX KINOMEscan binding assay at 1 μM, RSK3(Kin.Dom.2-C-terminal). Conditions: RSK3(Kin.Dom.2-C-terminal) (RPS6KA2); Compound Concentration 1000 nM; read-out: Percent Control.
Excerpt: as §1

The target of the next assay is T19, MAP3K3 (Homo sapiens, UniProt Q99759).
T19 construct: purchased Eurofins DiscoverX KINOMEscan
As to the kind of experiment: KINOMEscan at 1 μM, MAP3K3. The class given is binding. As to conditions: 1000 nM, read-out: Percent Control. The text has this:
(§2) Supplement cells-12-00287-s001.zip/File S2. KinomeScan data for the CAMKK2 probe and negative control.xlsx, sheet "SGC-CAMKK2-1N" | column: Percent Control

The next assay addresses T20, ERK4 (Homo sapiens, UniProt P31152).
T20 construct: purchased Eurofins DiscoverX KINOMEscan
As to the kind of experiment: KINOMEscan at 1 μM, ERK4. The class given is binding. As to conditions: 1000 nM, read-out: Percent Control.
Excerpt: as §2

The target of assay [3] is T21, ABL1(Q252H)-nonphosphorylated (Homo sapiens, UniProt P00519, Q252H).
T21 construct: purchased Eurofins DiscoverX KINOMEscan
As to the kind of experiment: KINOMEscan at 1 μM, ABL1(Q252H)-nonphosphorylated. The class given is binding. As to conditions: 1000 nM, read-out: Percent Control.
Excerpt: as §2

A further assay concerns the target T22, OSR1 (Homo sapiens, UniProt O95747).
T22 construct: purchased Eurofins DiscoverX KINOMEscan
Put plainly: KINOMEscan at 1 μM, OSR1. The class given is binding. Conditions: 1000 nM, read-out: Percent Control.
Excerpt: as §2

In the next assay the target is T23, CDKL2 (Homo sapiens, UniProt Q92772).
T23 construct: purchased Eurofins DiscoverX KINOMEscan
Put plainly: KINOMEscan at 1 μM, CDKL2. The class given is binding. As to conditions: 1000 nM, read-out: Percent Control.
Excerpt: as §2

The target of assay [4] is T5, STK36. As to the kind of experiment: KINOMEscan at 1 μM, STK36. As to conditions: 1000 nM, read-out: Percent Control. The class given is binding.
Excerpt: as §2

For a further assay, the target named is T24, TSSK1B (Homo sapiens, UniProt Q9BXA7).
T24 construct: purchased Eurofins DiscoverX KINOMEscan
As to the kind of experiment: KINOMEscan at 1 μM, TSSK1B. The class given is binding. As to conditions: 1000 nM, read-out: Percent Control.
Excerpt: as §2

For another assay, the target named is T25, PRKR (Homo sapiens, UniProt P19525).
T25 construct: purchased Eurofins DiscoverX KINOMEscan
Put plainly: KINOMEscan at 1 μM, PRKR. The class given is binding. Conditions: 1000 nM, read-out: Percent Control.
Excerpt: as §2

A further assay concerns the target T26, GRK1 (Homo sapiens, UniProt Q15835).
T26 construct: purchased Eurofins DiscoverX KINOMEscan
As to the kind of experiment: KINOMEscan at 1 μM, GRK1. The assay is classed as binding. As to conditions: 1000 nM, read-out: Percent Control.
Excerpt: as §2

A further assay concerns the target T27, KIT-autoinhibited (Homo sapiens, UniProt P10721).
T27 construct: purchased Eurofins DiscoverX KINOMEscan
Put plainly: KINOMEscan at 1 μM, KIT-autoinhibited. The class given is binding. Conditions: 1000 nM, read-out: Percent Control.
Excerpt: as §2

In another assay the target is T28, MINK (Homo sapiens, UniProt Q8N4C8).
T28 construct: purchased Eurofins DiscoverX KINOMEscan
As to the kind of experiment: KINOMEscan at 1 μM, MINK. The class given is binding. Conditions: 1000 nM, read-out: Percent Control.
Excerpt: as §2

A further assay addresses T29, PFCDPK1(P.falciparum) (Plasmodium falciparum, UniProt P62344).
T29 construct: purchased Eurofins DiscoverX KINOMEscan
As to the kind of experiment: KINOMEscan binding assay at 1 μM, PFCDPK1(P.falciparum). As to conditions: Compound Concentration 1000 nM; read-out: Percent Control.
Excerpt: as §2

In another assay the target is T30, SNRK (Homo sapiens, UniProt Q9NRH2).
T30 construct: purchased Eurofins DiscoverX KINOMEscan
As to the kind of experiment: KINOMEscan binding assay at 1 μM, SNRK. Conditions: Compound Concentration 1000 nM; read-out: Percent Control.
Excerpt: as §2

SMILES strings stand for the structures.

T5 sequence (Q9NRP7 whole entry): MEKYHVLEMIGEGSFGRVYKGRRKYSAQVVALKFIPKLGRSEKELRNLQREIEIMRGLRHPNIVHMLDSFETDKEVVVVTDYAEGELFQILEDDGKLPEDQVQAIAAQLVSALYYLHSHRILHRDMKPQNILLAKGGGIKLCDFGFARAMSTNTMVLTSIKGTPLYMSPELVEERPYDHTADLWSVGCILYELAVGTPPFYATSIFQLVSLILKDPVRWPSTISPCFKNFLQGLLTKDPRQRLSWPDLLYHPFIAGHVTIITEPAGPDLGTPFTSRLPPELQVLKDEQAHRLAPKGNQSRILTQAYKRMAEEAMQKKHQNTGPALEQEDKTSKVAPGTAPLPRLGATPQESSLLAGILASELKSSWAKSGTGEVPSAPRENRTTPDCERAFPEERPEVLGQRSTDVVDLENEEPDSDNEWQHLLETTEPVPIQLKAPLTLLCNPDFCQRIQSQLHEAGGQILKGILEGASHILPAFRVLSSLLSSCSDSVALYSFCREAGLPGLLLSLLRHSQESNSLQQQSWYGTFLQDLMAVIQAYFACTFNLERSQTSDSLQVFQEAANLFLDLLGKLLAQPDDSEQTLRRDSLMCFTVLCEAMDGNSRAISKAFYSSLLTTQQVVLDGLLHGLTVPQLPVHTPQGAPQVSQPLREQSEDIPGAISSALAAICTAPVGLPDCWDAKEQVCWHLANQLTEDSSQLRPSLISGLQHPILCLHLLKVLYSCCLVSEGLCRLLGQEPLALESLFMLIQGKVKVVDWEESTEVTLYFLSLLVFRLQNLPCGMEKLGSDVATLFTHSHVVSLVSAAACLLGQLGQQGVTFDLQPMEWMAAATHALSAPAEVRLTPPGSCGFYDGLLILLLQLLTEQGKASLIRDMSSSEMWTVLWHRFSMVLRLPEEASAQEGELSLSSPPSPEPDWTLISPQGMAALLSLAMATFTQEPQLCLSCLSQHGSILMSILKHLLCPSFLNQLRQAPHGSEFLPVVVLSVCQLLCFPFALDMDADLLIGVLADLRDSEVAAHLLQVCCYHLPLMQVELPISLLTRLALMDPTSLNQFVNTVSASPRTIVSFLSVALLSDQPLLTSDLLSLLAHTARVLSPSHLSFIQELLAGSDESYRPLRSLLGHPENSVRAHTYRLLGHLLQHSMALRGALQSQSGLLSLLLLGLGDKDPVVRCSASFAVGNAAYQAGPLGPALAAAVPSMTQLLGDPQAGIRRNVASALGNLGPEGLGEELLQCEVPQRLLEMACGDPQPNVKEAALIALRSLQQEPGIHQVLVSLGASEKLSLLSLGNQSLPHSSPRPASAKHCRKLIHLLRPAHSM
T3 sequence (Q16816 whole entry): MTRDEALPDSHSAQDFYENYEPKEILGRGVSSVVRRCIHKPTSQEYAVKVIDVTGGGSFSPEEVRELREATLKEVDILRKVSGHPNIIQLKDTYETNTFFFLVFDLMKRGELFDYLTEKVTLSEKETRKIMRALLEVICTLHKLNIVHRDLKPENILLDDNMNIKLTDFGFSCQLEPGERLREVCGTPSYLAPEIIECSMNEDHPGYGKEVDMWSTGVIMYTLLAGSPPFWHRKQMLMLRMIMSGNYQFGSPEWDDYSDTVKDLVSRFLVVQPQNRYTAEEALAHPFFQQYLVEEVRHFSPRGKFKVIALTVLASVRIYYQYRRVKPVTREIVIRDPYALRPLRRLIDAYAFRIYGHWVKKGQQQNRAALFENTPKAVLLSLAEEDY
T15 sequence (Q9H422 whole entry): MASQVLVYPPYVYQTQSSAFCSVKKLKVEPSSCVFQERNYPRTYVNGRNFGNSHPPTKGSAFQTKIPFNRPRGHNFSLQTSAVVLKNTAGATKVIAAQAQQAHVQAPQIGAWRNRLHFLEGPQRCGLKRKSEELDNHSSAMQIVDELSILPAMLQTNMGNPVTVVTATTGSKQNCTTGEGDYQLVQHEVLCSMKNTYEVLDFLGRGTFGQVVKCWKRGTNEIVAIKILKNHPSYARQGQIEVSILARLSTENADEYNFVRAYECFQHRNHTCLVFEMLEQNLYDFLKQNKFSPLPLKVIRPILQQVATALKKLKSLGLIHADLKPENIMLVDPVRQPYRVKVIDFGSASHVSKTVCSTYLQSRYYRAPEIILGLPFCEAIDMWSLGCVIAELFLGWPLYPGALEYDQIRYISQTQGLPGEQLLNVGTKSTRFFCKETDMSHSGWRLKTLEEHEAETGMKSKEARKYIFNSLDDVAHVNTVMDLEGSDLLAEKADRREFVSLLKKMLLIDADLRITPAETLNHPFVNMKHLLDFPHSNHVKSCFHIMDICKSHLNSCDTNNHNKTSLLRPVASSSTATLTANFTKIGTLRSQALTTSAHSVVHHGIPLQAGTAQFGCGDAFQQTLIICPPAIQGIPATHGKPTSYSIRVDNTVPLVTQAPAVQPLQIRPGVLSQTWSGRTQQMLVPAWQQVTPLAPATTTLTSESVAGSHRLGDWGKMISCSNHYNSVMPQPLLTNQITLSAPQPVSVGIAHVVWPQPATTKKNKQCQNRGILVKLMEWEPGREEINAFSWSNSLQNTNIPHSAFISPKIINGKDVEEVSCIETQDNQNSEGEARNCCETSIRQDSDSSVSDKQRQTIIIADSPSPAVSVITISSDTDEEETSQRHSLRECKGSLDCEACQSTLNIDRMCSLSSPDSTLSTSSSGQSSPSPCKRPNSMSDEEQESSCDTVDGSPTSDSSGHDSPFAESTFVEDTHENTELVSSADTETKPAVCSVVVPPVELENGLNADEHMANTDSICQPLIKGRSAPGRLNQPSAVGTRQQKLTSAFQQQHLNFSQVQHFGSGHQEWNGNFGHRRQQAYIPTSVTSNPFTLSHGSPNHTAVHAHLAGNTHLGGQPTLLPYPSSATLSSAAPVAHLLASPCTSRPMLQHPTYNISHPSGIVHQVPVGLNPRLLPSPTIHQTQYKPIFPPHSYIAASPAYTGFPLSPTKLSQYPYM
T4 sequence (P78368 whole entry): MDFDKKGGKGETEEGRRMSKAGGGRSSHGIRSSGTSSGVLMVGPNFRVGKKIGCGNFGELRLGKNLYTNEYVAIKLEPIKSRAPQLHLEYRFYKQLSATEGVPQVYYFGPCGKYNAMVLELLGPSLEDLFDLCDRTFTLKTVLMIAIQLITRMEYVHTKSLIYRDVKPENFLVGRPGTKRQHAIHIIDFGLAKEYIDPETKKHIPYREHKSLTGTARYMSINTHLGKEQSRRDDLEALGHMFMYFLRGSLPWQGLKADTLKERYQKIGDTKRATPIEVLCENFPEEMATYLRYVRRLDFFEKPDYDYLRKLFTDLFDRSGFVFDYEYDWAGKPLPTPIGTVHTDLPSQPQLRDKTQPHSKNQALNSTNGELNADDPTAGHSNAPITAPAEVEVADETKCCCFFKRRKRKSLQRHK
T29 sequence (P62344 whole entry): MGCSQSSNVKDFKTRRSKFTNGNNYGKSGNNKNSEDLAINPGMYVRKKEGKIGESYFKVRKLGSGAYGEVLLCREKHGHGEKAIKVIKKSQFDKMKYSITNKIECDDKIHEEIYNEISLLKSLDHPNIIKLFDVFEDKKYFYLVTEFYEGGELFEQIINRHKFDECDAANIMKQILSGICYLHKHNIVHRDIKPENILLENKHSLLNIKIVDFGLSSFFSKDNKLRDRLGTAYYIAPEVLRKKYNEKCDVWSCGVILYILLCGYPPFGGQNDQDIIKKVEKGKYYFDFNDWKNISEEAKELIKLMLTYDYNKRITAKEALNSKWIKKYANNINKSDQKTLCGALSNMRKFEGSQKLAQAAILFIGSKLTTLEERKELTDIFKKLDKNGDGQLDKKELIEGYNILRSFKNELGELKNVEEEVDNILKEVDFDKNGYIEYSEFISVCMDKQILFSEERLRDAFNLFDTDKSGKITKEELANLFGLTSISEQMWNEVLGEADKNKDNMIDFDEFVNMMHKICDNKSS
T6 sequence (P42684 whole entry): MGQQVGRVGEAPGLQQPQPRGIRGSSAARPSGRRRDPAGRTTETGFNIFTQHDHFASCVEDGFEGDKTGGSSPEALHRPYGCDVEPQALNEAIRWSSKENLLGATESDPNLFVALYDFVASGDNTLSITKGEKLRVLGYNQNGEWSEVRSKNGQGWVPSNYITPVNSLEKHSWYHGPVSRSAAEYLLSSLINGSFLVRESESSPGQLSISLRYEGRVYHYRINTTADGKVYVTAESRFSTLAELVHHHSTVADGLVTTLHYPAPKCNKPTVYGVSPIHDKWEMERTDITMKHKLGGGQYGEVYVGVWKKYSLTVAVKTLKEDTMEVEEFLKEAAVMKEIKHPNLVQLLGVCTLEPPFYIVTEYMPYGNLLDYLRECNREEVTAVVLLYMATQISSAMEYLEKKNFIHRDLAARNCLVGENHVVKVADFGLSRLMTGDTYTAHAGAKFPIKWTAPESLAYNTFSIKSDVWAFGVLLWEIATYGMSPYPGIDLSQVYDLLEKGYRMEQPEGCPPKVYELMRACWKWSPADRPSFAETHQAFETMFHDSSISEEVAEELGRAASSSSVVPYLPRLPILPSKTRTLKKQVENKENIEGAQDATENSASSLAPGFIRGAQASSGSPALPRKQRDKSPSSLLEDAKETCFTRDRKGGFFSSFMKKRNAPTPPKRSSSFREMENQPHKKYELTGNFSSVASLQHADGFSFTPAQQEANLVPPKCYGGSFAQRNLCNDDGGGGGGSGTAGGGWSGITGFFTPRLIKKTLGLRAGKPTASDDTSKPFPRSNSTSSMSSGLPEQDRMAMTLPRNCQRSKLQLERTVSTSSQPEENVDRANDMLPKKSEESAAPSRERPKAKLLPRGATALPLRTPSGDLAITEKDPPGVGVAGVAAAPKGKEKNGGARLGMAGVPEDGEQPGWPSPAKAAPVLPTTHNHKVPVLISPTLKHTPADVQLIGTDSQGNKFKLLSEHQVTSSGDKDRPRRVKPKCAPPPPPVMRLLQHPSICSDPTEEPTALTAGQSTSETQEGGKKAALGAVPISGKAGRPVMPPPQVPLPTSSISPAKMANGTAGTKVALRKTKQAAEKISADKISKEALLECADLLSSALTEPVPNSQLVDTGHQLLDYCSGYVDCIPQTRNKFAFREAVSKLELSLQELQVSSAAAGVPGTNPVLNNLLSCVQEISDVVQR

In the case of `Cc1cccc(-c2cnc3occ(-c4ccc(C(=O)O)c(C5CCCC5)c4)c3c2)c1` [SGC-CAMKK2-1 (YL-36)], the remaining binding at 1 µM on CDK8 was found to be 72%; at RIOK3, 75%; on PHKG1 it was 80%; on CSNK1G2, 88%; at STK36 [1], 89%; on ABL2 it was 92%. Besides, the remaining binding at 1 µM on CHEK2 was 92%; on DMPK, 92%; at AKT2 it was 100%; at ANKK1 it was 100%; at AURKB it was 100%; on CDK5, 100%. Further, the remaining binding at 1 µM (on EGFR(T790M); on FGFR1; at HIPK3; on NEK4; on PIK3CA(H1047Y); in assay [2]) was 100% in each case. The “Percent Control” value with FLT3(ITD,D835V) was determined as 88%.
As for `O=C(O)c1ccc(-c2coc3ncc(-c4ccccc4)cc23)cc1Cl` [SGC-CAMKK2-1N (UNC-YL-83)], the remaining binding at 1 µM is 47% on MAP3K3; 58% at ERK4; 59% in assay [3]; 64% on OSR1; 74% on CDKL2; 75% on STK36 [4]. Further, the remaining binding at 1 µM on TSSK1B came to 83%; at PRKR, 90%; on GRK1, 92%; at KIT-autoinhibited, 92%; at MINK, 95%; on PFCDPK1(P.falciparum) it was 100%. The remaining binding at 1 µM at SNRK stood at 100%.

These data come from article PMC9856672, “SGC-CAMKK2-1: A Chemical Probe for CAMKK2” (Cells, 2023).
